Bounds are passed on as bounds.

This test addresses T1, 15-PGDH/HPGD (Homo sapiens, UniProt P15428).
T1 construct: purchased R&D System 5660-DH
T1 sequence (P15428 1-266): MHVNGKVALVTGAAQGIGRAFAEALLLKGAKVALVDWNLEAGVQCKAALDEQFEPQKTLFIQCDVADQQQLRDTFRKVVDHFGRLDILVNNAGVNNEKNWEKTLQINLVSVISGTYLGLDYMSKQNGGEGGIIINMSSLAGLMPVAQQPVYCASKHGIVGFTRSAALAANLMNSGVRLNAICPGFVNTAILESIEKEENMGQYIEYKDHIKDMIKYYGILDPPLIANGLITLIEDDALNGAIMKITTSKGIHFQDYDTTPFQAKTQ
Put plainly: hPGDH inhibitor screening biochemical assay. The settings on record: 10 nM enzyme, 15 μM PGE2, 0.25 mM NAD, fluorescence ex/em 340/485 nm. As to the method:
A hydroxyprostaglandin dehydrogenase inhibition screening biochemical assay can be performed to assess the synthesized inhibitors provided herein. Provided herein is an exemplary biochemical assay for hPGDH inhibitor screening.
The in vitro biochemical assay can be performed in white, 384 plates in total 20 μl reaction volume consisting of 10 nM of 15-PGDH/HPGD (R&D System #5660-DH), 15 μM Prostaglandin E2 (Sigma, C8 t #P5640-10 MG) and 0.25 mM β-Nicotinamide adenine dinucleotide sodium salt (Sigma, C8 t #N0632-5G) made in reaction buffer (50 mM Tris-HCl, pH 7.5, 0.01% Tween 20) at 10-point dose response curve for test/tool compounds. Briefly, 5 μl (4×) of compounds solution and 5 μl (final concentration, 10 nM) of enzyme solution is added to white 384 well plates and incubated for 10 mins at 37° C. 5 μl (4×) of […] and 5 μl (4×) of β-Nicotinamide adenine dinucleotide sodium salt is added to the wells and incubated for 10 mins at room temperature. Fluorescence is recorded at ex/em=340 nm/485 nm. The percentage (%) inhibition of enzyme activity was determined relative to positive control (1% DMSO) and IC50 was calculated using GraphPad prism software (four parameter-variable slope equation).
Take `O=C(c1cnc2c(ccn2-c2ccc(-c3nc[nH]n3)cn2)c1)N1CCC(F)(F)CC1` [Compound B-34, (1-(5-(1H-1,2,4-triazol-3-yl)pyridin-2-yl)-1H-pyrrolo[2,3-b]pyridin-5-yl)(4,4-difluoropiperidin-1-yl)methanone]: the 50% inhibitory concentration (IC50) (in general, the concentration that gives 50% inhibition) is below 0.1 µM.

`C[C@H]1CCCN(C(=O)c2cnc3c(ccn3-c3ccc(-c4nc[nH]n4)cn3)c2)C1` [Compound B-35, (S)-(1-(5-(4H-1,2,4-triazol-3-yl)pyridin-2-yl)-1H-pyrrolo[2,3-b]pyridin-5-yl)(3-methylpiperidin-1-yl)methanone] registered an IC50 below 0.1 µM.

Regarding `C[C@H]1CCCN(C(=O)c2cnc3c(ccn3-c3cccc(-c4nc[nH]n4)c3)c2)C1` [Compound B-37, (S)-(1-(3-(1H-1,2,4-triazol-3-yl)phenyl)-1H-pyrrolo[2,3-b]pyridin-5-yl)(3-methylpiperidin-1-yl)methanone], the IC50 is below 0.1 µM.

On to `O=C(c1cnc2c(ccn2-c2ccc(-c3ncn[nH]3)nc2)c1)N1CCC[C@H](O)C1` [Compound B-39], for which the half-inhibitory concentration (IC50) was below 0.1 µM.

`C[C@H]1CCN(C(=O)c2cnc3c(ccn3-c3ccc(-c4ncn[nH]4)nc3)c2)C1` [Compound B-41]: the concentration for half-maximal inhibition (IC50) is below 0.1 µM.

For the compound `CC1(C)CCN(C(=O)c2cnc3c(ccn3-c3ccc(-c4ncn[nH]4)nc3)c2)C1` [Compound B-42], the half-inhibitory concentration (IC50) was below 0.1 µM.

Compound `O=C(c1cnc2c(ccn2-c2ccc(-c3ncn[nH]3)nc2)c1)N1CC[C@H](O)C1` [Compound B-43] showed a 50% inhibitory concentration (IC50) of 0.1 to 1 µM.

The compound `CO[C@@H]1CCN(C(=O)c2cnc3c(ccn3-c3ccc(-c4ncn[nH]4)nc3)c2)C1` [Compound B-44] yielded a concentration for half-maximal inhibition (IC50) below 0.1 µM.

Compound `O=C(c1cnc2c(ccn2-c2cnc(-c3ncn[nH]3)nc2)c1)N1CCC(F)(F)CC1` [Compound B-45, (1-(2-(1H-1,2,4-triazol-5-yl)pyrimidin-5-yl)-1H-pyrrolo[2,3-b]pyridin-5-yl)(4,4-difluoropiperidin-1-yl)methanone] had an IC50 below 0.1 µM.

For the compound `CC1CN(C(=O)c2cnc3c(ccn3-c3ccc(-c4ncn[nH]4)nc3)c2)CC(C)O1` (stereo not drawn) [Compound B-47, (1-(6-(1H-1,2,4-triazol-5-yl)pyridin-3-yl)-1H-pyrrolo[2,3-b]pyridin-5-yl)(2,6-dimethylmorpholino) methanone], the half-inhibitory concentration (IC50) was below 0.1 µM.

In turn, `N=C(NN)c1ccc(-n2ccc3cc(C(=O)N4CCC(F)(F)CC4)cnc32)cn1` [Compound B-48, 5-(5-(4,4-difluoropiperidine-1-carbonyl)-1H-pyrrolo[2,3-b]pyridin-1-yl) picolinimidohydrazide] gave an IC50 below 0.1 µM.

As for `CC1CN(C(=O)c2cnc3c(ccn3-c3ccc(-c4nc(N)n[nH]4)nc3)c2)CCO1` (stereo not drawn) [Compound B-49, (1-(6-(3-amino-1H-1,2,4-triazol-5-yl)pyridin-3-yl)-1H-pyrrolo [2,3-b]pyridin-5-yl)(2-methylmorpholino)methanone], the IC50 was below 0.1 µM.

In turn, `Nc1nnc(-c2ccc(-n3ccc4cc(C(=O)N5CCCC(F)(F)C5)cnc43)cc2)[nH]1` [Compound B-54] yielded an IC50 below 0.1 µM.

Regarding `CCOC(=O)Nc1cncc(-n2ccc3cc(C(=O)N4CCCC(F)(F)C4)cnc32)c1` [Compound B-55], the half-maximal inhibitory concentration (IC50) is below 0.1 µM.

Consider `O=C(c1cnc2c(ccn2-c2ccc(-c3nnc[nH]3)nc2)c1)N1CCC2(CC1)CC2` [Compound B-56], for which the half-maximal inhibitory concentration (IC50) is below 0.1 µM.

`O=C(c1cnc2c(ccn2-c2cnn(CC(F)(F)F)c2)c1)N1CCCC(F)(F)C1` [Compound B-57] had an IC50 below 0.1 µM.

Turning to `CC(C)c1nnc(-c2ccc(-n3ccc4cc(C(=O)N5CCC(F)(F)CC5)cnc43)cc2)[nH]1` [Compound B-58], the IC50 is below 0.1 µM.

In turn, `O=C(c1cnc2c(ccn2-c2cnn(CC(F)(F)F)c2)c1)N1CCCC(C(F)(F)F)C1` (stereo not drawn) [Compound B-59] gave a half-maximal inhibitory concentration (IC50) of 0.1 to 1 µM.

`O=C(c1cnc2c(ccn2-c2ccc3nc(N4CCOCC4)nn3c2)c1)N1CCCC(F)(F)C1` [Compound B-60] gave a half-maximal inhibitory concentration (IC50) below 0.1 µM.

Turning to `O=C(c1cnc2c(ccn2-c2ccc(-c3nnc[nH]3)cc2)c1)N1CCCC(F)(F)C1` [Compound B-61], the concentration for half-maximal inhibition (IC50) was below 0.1 µM.

`COCCn1cc(-n2ccc3cc(C(=O)N4CCC(F)(F)CC4)cnc32)cn1` [Compound B-62] had an IC50 of 0.1 to 1 µM.

With `COC(=O)Nc1cncc(-n2ccc3cc(C(=O)N4CCC[C@H](C(F)(F)F)C4)cnc32)c1` [Compound B-65], the IC50 was below 0.1 µM.

Consider `COC(=O)Nc1cncc(-n2ccc3cc(C(=O)N4CCC[C@@H](C(F)(F)F)C4)cnc32)c1` [Compound B-66], for which the IC50 was below 0.1 µM.

As for `Nc1nnc(-c2cccc(-n3ccc4cc(C(=O)N5CCC(F)(F)CC5)cnc43)c2)[nH]1` [Compound B-71], the IC50 was below 0.1 µM.

The compound `CN(C)c1nnc(-c2cccc(-n3ccc4cc(C(=O)N5CCC(F)(F)CC5)cnc43)c2)[nH]1` [Compound B-73] came in with an IC50 below 0.1 µM.

As for `Cc1nnc(-c2ccc(-n3ccc4cc(C(=O)N5CCC(F)(F)CC5)cnc43)cc2)[nH]1` [Compound B-74], the IC50 is below 0.1 µM.

On to `C[C@@H]1CN(C(=O)c2cnc3c(ccn3-c3ccc(N4CCOC4=O)nc3)c2)CCC1(F)F` [Compound B-75], for which the IC50 was below 0.1 µM.

`C[C@H]1CN(C(=O)c2cnc3c(ccn3-c3ccc(N4CCOC4=O)nc3)c2)CCC1(F)F` [Compound B-76] showed an IC50 below 0.1 µM.

Compound `CN(C)c1nnc(-c2ccc(-n3ccc4cc(C(=O)N5CCC(F)(F)CC5)cnc43)cc2)[nH]1` [Compound B-77] displayed an IC50 below 0.1 µM.

`Nc1nnc(-c2ccc(-n3ccc4cc(C(=O)N5CCC(F)(F)CC5)cnc43)cc2)[nH]1` [Compound B-78, (1-(4-(5-amino-4H-1,2,4-triazol-3-yl)phenyl)-1H-pyrrolo[2,3-b]pyridin-5-yl)(4,4-difluoropiperidin-1-yl)methanone]: the IC50 is below 0.1 µM.

The compound `CN1CCN(c2ccc(-n3ccc4cc(C(=O)N5CCC(F)(F)CC5)cnc43)cn2)C1=O` [Compound B-91] came in with a half-maximal inhibitory concentration (IC50) below 0.1 µM.

In turn, `O=C(Nc1cncc(-n2ccc3cc(C(=O)N4CCC(F)(F)CC4)cnc32)c1)C1CC1` [Compound B-93] returned a 50% inhibitory concentration (IC50) below 0.1 µM.

`O=C(c1cnc2c(ccn2-c2cnn(C3CCOCC3)c2)c1)N1CCC(F)(F)CC1` [Compound B-94] displayed an IC50 below 0.1 µM.

As for `CCn1cc(-n2ccc3cc(C(=O)N4CCC(F)(F)CC4)cnc32)cn1` [Compound B-95], the half-inhibitory concentration (IC50) is below 0.1 µM.

In turn, `NC(=O)c1ccc(-n2ccc3cc(C(=O)N4CCC(F)(F)CC4)cnc32)cn1` [Compound B-104] gave a half-inhibitory concentration (IC50) below 0.1 µM.

Compound `N#Cc1ccc(-n2ccc3cc(C(=O)N4CC[C@@H](F)C4)cnc32)cc1` [Compound B-126] returned a half-maximal inhibitory concentration (IC50) below 0.1 µM.

In the case of `N#Cc1ccc(-n2ccc3cc(C(=O)N4CC[C@H](F)C4)cnc32)cc1` [Compound B-127], the IC50 was below 0.1 µM.

On to `O=C(c1cnc2c(ccn2-c2ccc(-c3cnc[nH]3)cc2)c1)N1CCC(F)(F)CC1` [Compound B-226], for which the IC50 was below 0.1 µM.

For the compound `O=C(c1cnc2c(ccn2-c2ccc(-c3nnc[nH]3)cc2)c1)N1CCSCC1` [Compound B-227], the IC50 is below 0.1 µM.

Compound `O=C(c1cnc2c(ccn2-c2ccc(-c3nnc[nH]3)cc2)c1)N1CCC[C@@H](C(F)(F)F)C1` [Compound B-228] yielded a half-maximal inhibitory concentration (IC50) below 0.1 µM.

`O=C(c1cnc2c(ccn2-c2ccc(-c3nnc[nH]3)cc2)c1)N1CCC[C@H](C(F)(F)F)C1` [Compound B-229] registered an IC50 below 0.1 µM.

For `CCOC(=O)Nc1cncc(-n2ccc3cc(C(=O)N4CCSCC4)cnc32)c1` [Compound B-230], the IC50 was below 0.1 µM.

The compound `O=C(c1cnc2c(ccn2-c2ccc(-c3cn[nH]c3)cc2)c1)N1CCC(F)(F)CC1` [Compound B-233] displayed an IC50 below 0.1 µM.

`O=C(c1cnc2c(ccn2-c2cnn(CC(F)F)c2)c1)N1CCC(F)(F)CC1` [Compound B-235] had an IC50 of 0.1 to 1 µM.

In turn, `O=C(Nc1cncc(-n2ccc3cc(C(=O)N4CCC(F)(F)CC4)cnc32)c1)C1CCC(F)(F)CC1` [Compound B-237] returned an IC50 below 0.1 µM.

The compound `CCOC(=O)Nc1cncc(-n2ccc3cc(C(=O)N4CCCC(C(F)(F)F)C4)cnc32)c1` (stereo not drawn) [Compound B-238] registered a 50% inhibitory concentration (IC50) below 0.1 µM.

Take `CC1(O)CCCN(C(=O)c2cnc3c(ccn3-c3ccc(-c4nnc[nH]4)c(F)c3)c2)C1` (stereo not drawn) [Compound B-239]: the half-maximal inhibitory concentration (IC50) is below 0.1 µM.

Take `CC1(O)CCCN(C(=O)c2cnc3c(ccn3-c3cc(Cl)cc(-c4nnc[nH]4)c3)c2)C1` (stereo not drawn) [Compound B-240]: the IC50 was below 0.1 µM.

Compound `CC1(O)CCCN(C(=O)c2cnc3c(ccn3-c3cc(F)cc(-c4nnc[nH]4)c3)c2)C1` (stereo not drawn) [Compound B-241] returned a half-maximal inhibitory concentration (IC50) below 0.1 µM.

For the compound `CO[C@H]1CCCN(C(=O)c2cnc3c(ccn3-c3cc(F)cc(-c4nnc[nH]4)c3)c2)C1` [Compound B-242], the half-inhibitory concentration (IC50) was below 0.1 µM.

In turn, `C[C@@]1(O)CCCN(C(=O)c2cnc3c(ccn3-c3ccc(-c4nnc[nH]4)cc3)c2)C1` [Compound B-243] registered an IC50 below 0.1 µM.

The values are drawn from patent US20240294519A1, “PYRROLO[2,3-b]PYRIDINE PGDH INHIBITORS AND METHODS OF MAKING AND USING” (EPIRIUM BIO INC., priority 2021, published 2024).
